Reference: PubChem BioAssay (NCI)
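Tested at 5 concentrations; 48 h exposure; 96-well plates; endpoints linearly interpolated, else capped at highest concentration. Abbreviation: GI50, concentration required for 50% inhibition of growth. TGI: concentration producing complete growth inhibition.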

What was measured:
Test in all cases: inhibition of tumour cell growth, NCI panel, 48 h; in the data active = GI50 below about 0.43 µM; inactive = the rest
786-0 renal = test system: 786-0 renal
A498 renal = test system: A498 renal
A549 NSCLC = test system: A549 NSCLC
ACHN renal = test system: ACHN renal
BT-549 breast = test system: BT-549 breast
CAKI-1 renal = test system: CAKI-1 renal
CCRF-CEM leukemia = test system: CCRF-CEM leukemia
COLO 205 colon = test system: COLO 205 colon
DU-145 prostate = test system: DU-145 prostate
EKVX NSCLC = test system: EKVX NSCLC
HCC-2998 colon = test system: HCC-2998 colon
HCT-116 colon = test system: HCT-116 colon
HCT-15 colon = test system: HCT-15 colon
HL-60(TB) leukemia = test system: HL-60(TB) leukemia
HOP-62 NSCLC = test system: HOP-62 NSCLC
HOP-92 NSCLC = test system: HOP-92 NSCLC
HS 578T breast = test system: HS 578T breast
HT29 colon = test system: HT29 colon
IGROV1 ovarian = test system: IGROV1 ovarian
K-562 leukemia = test system: K-562 leukemia
KM12 colon = test system: KM12 colon
LOX IMVI melanoma = test system: LOX IMVI melanoma
M14 melanoma = test system: M14 melanoma
MALME-3M melanoma = test system: MALME-3M melanoma
MCF7 breast = test system: MCF7 breast
MDA-MB-231 breast = test system: MDA-MB-231 breast
MDA-MB-435 = test system: MDA-MB-435
MDA-MB-468 breast = test system: MDA-MB-468 breast
MOLT-4 leukemia = test system: MOLT-4 leukemia
NCI-H226 lung = test system: NCI-H226 lung
NCI-H23 lung = test system: NCI-H23 lung
NCI-H460 lung = test system: NCI-H460 lung
NCI-H522 lung = test system: NCI-H522 lung
NCI/ADR-RES ovarian = test system: NCI/ADR-RES ovarian
OVCAR-3 ovarian = test system: OVCAR-3 ovarian
OVCAR-4 ovarian = test system: OVCAR-4 ovarian
OVCAR-5 ovarian = test system: OVCAR-5 ovarian
OVCAR-8 ovarian = test system: OVCAR-8 ovarian
PC-3 prostate = test system: PC-3 prostate
RPMI-8226 leukemia = test system: RPMI-8226 leukemia
RXF 393 renal = test system: RXF 393 renal
SF-268 CNS = test system: SF-268 CNS
SF-295 CNS = test system: SF-295 CNS
SF-539 CNS = test system: SF-539 CNS
SK-MEL-2 melanoma = test system: SK-MEL-2 melanoma
SK-MEL-28 melanoma = test system: SK-MEL-28 melanoma
SK-MEL-5 melanoma = test system: SK-MEL-5 melanoma
SK-OV-3 ovarian = test system: SK-OV-3 ovarian
SN12C renal = test system: SN12C renal
SNB-19 CNS = test system: SNB-19 CNS
SNB-75 CNS = test system: SNB-75 CNS
SR leukemia = test system: SR leukemia
SW-620 colon = test system: SW-620 colon
T-47D breast = test system: T-47D breast
TK-10 renal = test system: TK-10 renal
U251 CNS = test system: U251 CNS
UACC-257 melanoma = test system: UACC-257 melanoma
UACC-62 melanoma = test system: UACC-62 melanoma
UO-31 renal = test system: UO-31 renal

O=C(NO)c1ccc(CNC(=O)[C@H]2Cc3c([nH]c4ccccc34)[C@H](c3ccccc3)N2)cc1
> 23.7 µM: TGI (786-0 renal) | TGI (A549 NSCLC) | TGI (BT-549 breast) | TGI (CCRF-CEM leukemia) | TGI (DU-145 prostate) | TGI (EKVX NSCLC) | TGI (HCT-116 colon) | TGI (HCT-15 colon) | TGI (HL-60(TB) leukemia) | TGI (K-562 leukemia) | TGI (KM12 colon) | TGI (M14 melanoma) | TGI (MALME-3M melanoma) | TGI (MCF7 breast) | TGI (MOLT-4 leukemia) | TGI (NCI-H226 lung) | TGI (NCI-H460 lung) | TGI (NCI/ADR-RES ovarian) | TGI (OVCAR-4 ovarian) | TGI (OVCAR-8 ovarian) | TGI (PC-3 prostate) | TGI (RPMI-8226 leukemia) | TGI (SF-268 CNS) | TGI (SF-539 CNS) | TGI (SNB-19 CNS) | TGI (SNB-75 CNS) | TGI (SR leukemia) | TGI (UO-31 renal)
15.2 µM: TGI (IGROV1 ovarian)
6.43 µM: TGI (LOX IMVI melanoma)
13.5 µM: TGI (MDA-MB-435)
12.6 µM: TGI (OVCAR-3 ovarian)
13.1 µM: TGI (HOP-62 NSCLC)
23.5 µM: TGI (SN12C renal)
11.7 µM: TGI (A498 renal)
7.76 µM: TGI (SW-620 colon)
21.8 µM: TGI (HS 578T breast)
11.3 µM: TGI (SK-OV-3 ovarian)
19.2 µM: TGI (TK-10 renal)
18 µM: TGI (HT29 colon)
9.84 µM: TGI (T-47D breast)
5.93 µM: TGI (SK-MEL-5 melanoma)
18.3 µM: TGI (NCI-H23 lung)
22 µM: TGI (SK-MEL-28 melanoma)
12.9 µM: TGI (U251 CNS)
7.89 µM: TGI (SF-295 CNS)
6.91 µM: TGI (HCC-2998 colon)
5.57 µM: TGI (COLO 205 colon)
inactive: GI50 (786-0 renal) 9.15 µM | GI50 (A498 renal) 2460 nM | GI50 (A549 NSCLC) 6.77 µM | GI50 (ACHN renal) 5 µM | GI50 (BT-549 breast) 14.2 µM | GI50 (CAKI-1 renal) 5.69 µM | GI50 (CCRF-CEM leukemia) 785 nM | GI50 (COLO 205 colon) 2360 nM | GI50 (DU-145 prostate) 4.06 µM | GI50 (EKVX NSCLC) 8.42 µM | GI50 (HCC-2998 colon) 2900 nM | GI50 (HCT-116 colon) 1130 nM | GI50 (HCT-15 colon) 11.8 µM | GI50 (HL-60(TB) leukemia) 3000 nM | GI50 (HOP-62 NSCLC) 3.6 µM | GI50 (HOP-92 NSCLC) 1590 nM | GI50 (HS 578T breast) 1380 nM | GI50 (HT29 colon) 3.29 µM | GI50 (IGROV1 ovarian) 3.71 µM | GI50 (K-562 leukemia) 1380 nM | GI50 (KM12 colon) 5.01 µM | GI50 (LOX IMVI melanoma) 3.35 µM | GI50 (M14 melanoma) 5.93 µM | GI50 (MALME-3M melanoma) 545 nM | GI50 (MCF7 breast) 3.59 µM | GI50 (MDA-MB-231 breast) 3.53 µM | GI50 (MDA-MB-435) 3.26 µM | GI50 (MDA-MB-468 breast) 507 nM | GI50 (MOLT-4 leukemia) 763 nM | GI50 (NCI-H226 lung) 2700 nM | GI50 (NCI-H23 lung) 4.71 µM | GI50 (NCI-H460 lung) 3.59 µM | GI50 (NCI-H522 lung) 685 nM | GI50 (NCI/ADR-RES ovarian) 5.72 µM | GI50 (OVCAR-3 ovarian) 2510 nM | GI50 (OVCAR-4 ovarian) 8.3 µM | GI50 (OVCAR-5 ovarian) 1420 nM | GI50 (OVCAR-8 ovarian) 1430 nM | GI50 (PC-3 prostate) 5.39 µM | GI50 (RPMI-8226 leukemia) 1350 nM | GI50 (RXF 393 renal) 1920 nM | GI50 (SF-268 CNS) 5.5 µM | GI50 (SF-295 CNS) 3.34 µM | GI50 (SF-539 CNS) 3.73 µM | GI50 (SK-MEL-2 melanoma) 3.66 µM | GI50 (SK-MEL-28 melanoma) 3.13 µM | GI50 (SK-MEL-5 melanoma) 2660 nM | GI50 (SK-OV-3 ovarian) 3.28 µM | GI50 (SN12C renal) 5.27 µM | GI50 (SNB-19 CNS) 5.19 µM | GI50 (SNB-75 CNS) 1990 nM | GI50 (SR leukemia) 449 nM | GI50 (SW-620 colon) 2310 nM | GI50 (T-47D breast) 1030 nM | GI50 (TK-10 renal) 2880 nM | GI50 (U251 CNS) 2780 nM | GI50 (UACC-257 melanoma) 1430 nM | GI50 (UACC-62 melanoma) 1130 nM | GI50 (UO-31 renal) 5.58 µM
16.6 µM: TGI (CAKI-1 renal)
14.6 µM: TGI (SK-MEL-2 melanoma)
6.84 µM: TGI (OVCAR-5 ovarian)
2330 nM: TGI (MDA-MB-468 breast)
12.4 µM: TGI (HOP-92 NSCLC) | TGI (MDA-MB-231 breast)
5.64 µM: TGI (NCI-H522 lung)
4.64 µM: TGI (UACC-62 melanoma)
16.2 µM: TGI (ACHN renal)
15.9 µM: TGI (UACC-257 melanoma)
6.54 µM: TGI (RXF 393 renal)
